Test system: HEK293T cells
Experiment: Cell viability assay (CellTiter Glo)
Format: cell-based, human
Conditions: Homo sapiens, HEK-293T; log10 transformed; IC50 = concentration that suppresses 50% cell viability; HEK293T cells
Protocol: HEK293T cells (AATC) were maintained in complete media and cell viability assay was conducted in a fresh-prepared minimal medium containing essential amino acids, vitamin, AlbuMax (Invitrogen 11021-029) in 1×HBS buffer. White 384-well assay plates (Greiner EK-30080) were coated with poly-L-ornithine (0.1 mg/ml) overnight and washed once with 1×PBS. 15 μl minimal medium was then added to each well. 250 nl of compounds dissolved in OmniSolve DMSO were pinned to each well via Biomek FX^P Liquid Handling Automation from compound source plates. Cells were harvested, resuspended in minimal medium, and seeded at 16,500 cells/15 μl/well in the 384-well assay plates. 24 hrs later, 25 μl/well CellTiter Glo reagent (Promega G7572) was added into each well, and luminescence (0.5 second integration time) was acquired following manufacture's protocol. Luminescence count normalized to DMSO control is used as a readout of cell viability.
To investigate the effects of JMM compounds that enhance NPEPPS activity and assess their cellular toxicity, 139 compounds in the JMM series (i.e., JMM001-JMM139) were tested in dose responses (20-step, 2-fold dilution) using NPEPPS activity and viability assays in HEK293T cells. 76 compounds harboring different modifications produce concentration-dependent enhancement on NPEPPS activity compared to DMSO control (FIG. 4). […] A therapeutic index (TI, a ratio of IC50 over EC50) is used to evaluate the relative safety profiles of the compounds. […] 16 JMM compounds show both improved potency and reduced toxicity (EC50<10 μM and TI>10, Table 1).

Row | Structure (SMILES) | IC50
1 | c1ccc2c(c1)CN(c1nsc3ccccc13)C2 [JMM087] | 229 µM
2 | O=C(Nc1nsc2ccccc12)c1ccc(C(F)(F)F)cc1 [JMM007] | 1740 µM
3 | CS(=O)(=O)N(Cc1ccc(C(F)(F)F)cc1)c1nsc2ccccc12 [JMM071] | 10 µM
4 | c1ccc(COc2ccc3snc(NCc4ccc(COc5ccccc5)cc4)c3c2)cc1 [JMM124, 5-(Benzyloxy)-N-(4-(phenoxymethyl)benzyl)benzo[d]isothiazol-3-amine] | 724 µM
5 | c1ccc(COc2ccc3snc(NCc4ccc(Cc5ccccc5)cc4)c3c2)cc1 [JMM120, N-(4-benzylbenzyl)-5-(benzyloxy)benzo[d]isothiazol-3-amine] | 1050 µM
6 | c1ccc2c(CNc3nsc4ccccc34)nccc2c1 [JMM074] | 1820 µM
7 | c1ccc2c(CNc3nsc4ccccc34)c3ccccc3cc2c1 [JMM018] | 9550 µM
8 | COc1ccc(CNc2ncnc3ccccc23)cc1OC [JMM036] | 135 µM
9 | O=C1c2ccccc2C(=O)N1c1nsc2cnccc12 [JMM085] | 3160 µM
10 | c1ccc(COc2ccc3snc(NC4c5ccccc5-c5ccccc54)c3c2)cc1 [JMM089] | 3310 µM
11 | c1ccc(COc2ccc3snc(NCc4ccc(N(Cc5ccccc5)Cc5ccccc5)cc4)c3c2)cc1 [JMM126, 5-(Benzyloxy)-N-(4-(dibenzylamino)benzyl)benzo[d]isothiazol-3-amine] | 1260 µM
12 | O=C(Nc1nsc2ccccc12)c1ccc2c(c1)OCCO2 [JMM006] | 282 µM
13 | Cc1cc(C)c(COc2ccc(CNc3nsc4ccc(OCc5ccccc5)cc34)cc2)c(C)c1 [JMM123, 5-(Benzyloxy)-N-(4-((2,4,6-trimethylbenzyl)oxy)benzyl)benzo[d]isothiazol-3-amine] | 661 µM
14 | COc1cccc(CNc2nsc3ccccc23)c1 [JMM010] | 97.7 µM
15 | c1ccc(COc2ccc3snc(NCc4ccc(OCc5ccccc5)c5ccccc45)c3c2)cc1 [JMM116, 5-(Benzyloxy)-N-((4-(benzyloxy)naphthalen-1-yl)methyl)benzo[d]isothiazol-3-amine] | 1000 µM
16 | COc1ccc(CNc2nccc3ccccc23)cc1OC [JMM034] | 186 µM

Source: patent publication US20240174625A1, “COMPOSITIONS AND METHODS FOR TREATING TAUOPATHIES” (The Regents of the University of California, priority 2021, published 2024)
